This note sets out measurements from ChEMBL document CHEMBL1201862, “PubChem BioAssay data set” (2004).

Structures are written as SMILES. Active and inactive are the calls of the source. A value given as a limit tells only on which side of the number the result lay.

Assay [1] deals with T1, Ubiquitin-conjugating enzyme E2 N (Homo sapiens, UniProt P61088).
T1 sequence (P61088 whole entry): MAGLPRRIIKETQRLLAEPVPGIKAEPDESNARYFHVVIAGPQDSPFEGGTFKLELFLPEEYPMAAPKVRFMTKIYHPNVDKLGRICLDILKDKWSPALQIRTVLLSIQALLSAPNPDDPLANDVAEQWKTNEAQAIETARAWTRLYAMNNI
The assay is classed as functional.

Assay [2] concerns the target T2, Multidrug resistance protein CDR2 (Candida albicans (strain SC5314 / ATCC MYA-2876) (Yeast), UniProt P78595). The experiment in a line: CaCDR2 efflux pump inhibitors in yeast, dose response, S. cerevisiae AD1-8u, singleplex, Cherry Pick1 hits (AID 588604). The assay is classed as functional.
Assay [3] addresses T2, Multidrug resistance protein CDR2. As to the kind of experiment: CaCDR2 efflux pump inhibitors in yeast, dose response, S. cerevisiae AD1-8u, singleplex, Cherry Pick2 set (AID 623994). The assay is classed as functional. The following applies: read-out: EC50_MICROM.
Assay [4] addresses T3, Benomyl/methotrexate resistance protein (Candida albicans, UniProt P28873). The experiment in a line: CaMdr1 efflux pump inhibitor potency, dose response, singleplex, Cherry Pick1 hits (AID 588608). It is filed as functional.
In assay [5] the target is T4, Multidrug resistance protein CDR1 (Candida albicans, UniProt P43071). As to the kind of experiment: CaCDR1 efflux pump inhibitors in yeast, dose response, S. cerevisiae AD1-8u, singleplex, Cherry Pick1 hits (AID 588606). The assay is classed as functional.
The target of assay [6] is T4, Multidrug resistance protein CDR1. As to the kind of experiment: CaCdr1 efflux pump inhibitor potency, dose response, singleplex, Cherry Pick2 set (AID 623996). The following applies: read-out: EC50_MICROM. It is filed as functional.
The target in assay [7] is T3, Benomyl/methotrexate resistance protein. As to the kind of experiment: CaMdr1 efflux pump inhibitor potency, dose response, singleplex, Cherry Pick2 set (AID 623992). To be noted: read-out: EC50_MICROM. The assay is classed as functional.
Assay [8] has as its target Glycogen synthase kinase-3 beta (Homo sapiens, UniProt P49841). The experiment in a line: GSK3beta kinase inhibitors, dose response, biochemical, microfluidics, dry powder samples, set 2 (AID 623989). The assay is classed as functional.
The target in assay [9] is Glycogen synthase kinase-3 alpha (Homo sapiens, UniProt P49840). The experiment in a line: human GSK3 alpha kinase inhibition, dose response, selectivity assay for GSK3beta inhibitor project, biochemical, microfluidics, dry powder samples, set 2 (AID 623978). The assay is classed as functional.
The target in assay [10] is Cyclin-dependent kinase 5/CDK5 activator 1 (Homo sapiens, UniProt Q00535). The experiment in a line: CDK5-p25 kinase inhibition, dose response, selectivity assay for GSK3beta inhibitor project, biochemical, microfluidic mobility shift, dry powder, set 2 (AID 623979). It is filed as functional.
The target of assay [11] is T5, DNA repair protein RAD52 homolog (Homo sapiens, UniProt P43351).
T5 sequence (P43351 whole entry): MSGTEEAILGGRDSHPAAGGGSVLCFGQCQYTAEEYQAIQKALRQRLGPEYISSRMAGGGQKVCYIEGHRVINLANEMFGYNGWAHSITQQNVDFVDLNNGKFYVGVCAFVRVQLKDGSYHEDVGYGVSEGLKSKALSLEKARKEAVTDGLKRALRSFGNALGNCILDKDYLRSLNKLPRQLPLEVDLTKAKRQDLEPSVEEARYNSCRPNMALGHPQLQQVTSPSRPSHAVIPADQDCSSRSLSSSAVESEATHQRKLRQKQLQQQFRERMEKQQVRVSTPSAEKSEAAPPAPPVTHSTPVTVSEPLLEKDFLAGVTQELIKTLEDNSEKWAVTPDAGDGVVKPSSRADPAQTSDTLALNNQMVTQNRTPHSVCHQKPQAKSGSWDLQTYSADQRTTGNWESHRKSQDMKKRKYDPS
It is filed as functional, biochemical.

For assay [12], the target named is Melanin-concentrating hormone receptor 1 (Homo sapiens, UniProt Q99705). The experiment in a line: Late-stage fluorescence-based counterscreen for antagonists of the G-protein coupled receptor 7 (GPR7): cell-based dose response assay to identify antagonists of the melanin-concentrating hormone receptor 1 (MCHR1) Set 6. It is filed as functional.
Assay [13] addresses Neuropeptides B/W receptor type 1 (Homo sapiens, UniProt P48145). As to the kind of experiment: GPR7 antagonist potency, late-stage follow-up, cell-based, fluorescence, dose response, set 6 (AID 588583). It is filed as functional.
Assay [14] can be described thus: Vero cell cytotoxicity, dose response, cytotoxicity control for M. tuberculosis growth inhibitor project, Vero cells, purified and synthesized compounds, set 5 (AID 504909). The assay is classed as functional. To be noted: Mycobacterium tuberculosis.
A short description of assay [15]: THP-1 cell cytotoxicity, cytotoxicity control, set 4 (AID 504911). The assay is classed as functional. The following applies: Mycobacterium tuberculosis.
Assay [16] in a line: Vero cell cytotoxicity, dose response, cytotoxicity control for M. tuberculosis growth inhibitor project, Vero cells, purified and synthesized compounds, set 4 (AID 504854). The assay is classed as functional. To be noted: Mycobacterium tuberculosis.
For assay [17], the target named is DNA dC->dU-editing enzyme APOBEC-3A (Homo sapiens, UniProt P31941). The experiment in a line: SAR analysis of small molecule inhibitors of APOBEC3A DNA Deaminase via a fluorescence-based single-stranded DNA deaminase assay - Set 2. The assay is classed as functional. To be noted: read-out: IC50_Mean.
The target in assay [18] is DNA dC->dU-editing enzyme APOBEC-3G (Homo sapiens, UniProt Q9HC16). The experiment in a line: SAR analysis of small molecule inhibitors of APOBEC3G DNA Deaminase via a fluorescence-based single-stranded DNA deaminase assay - Set 2. The assay is classed as functional. The following applies: read-out: IC50_Mean.

T3 sequence (P28873 whole entry): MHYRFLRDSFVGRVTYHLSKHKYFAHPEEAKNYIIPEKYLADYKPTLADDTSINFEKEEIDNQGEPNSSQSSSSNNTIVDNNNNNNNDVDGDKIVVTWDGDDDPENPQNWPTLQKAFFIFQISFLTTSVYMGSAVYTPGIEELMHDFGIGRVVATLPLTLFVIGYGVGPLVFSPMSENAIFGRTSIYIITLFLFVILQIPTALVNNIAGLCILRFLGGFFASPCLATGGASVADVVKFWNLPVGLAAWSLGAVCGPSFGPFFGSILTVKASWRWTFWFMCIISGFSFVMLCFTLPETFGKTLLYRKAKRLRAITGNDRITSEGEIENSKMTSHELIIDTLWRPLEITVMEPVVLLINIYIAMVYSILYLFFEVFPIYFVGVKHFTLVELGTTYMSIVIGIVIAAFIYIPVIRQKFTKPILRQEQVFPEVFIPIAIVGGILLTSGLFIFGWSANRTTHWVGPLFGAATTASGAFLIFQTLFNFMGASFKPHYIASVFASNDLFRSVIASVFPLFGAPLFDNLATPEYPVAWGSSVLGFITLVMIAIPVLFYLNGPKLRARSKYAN
T4 sequence (P43071 whole entry, looked up): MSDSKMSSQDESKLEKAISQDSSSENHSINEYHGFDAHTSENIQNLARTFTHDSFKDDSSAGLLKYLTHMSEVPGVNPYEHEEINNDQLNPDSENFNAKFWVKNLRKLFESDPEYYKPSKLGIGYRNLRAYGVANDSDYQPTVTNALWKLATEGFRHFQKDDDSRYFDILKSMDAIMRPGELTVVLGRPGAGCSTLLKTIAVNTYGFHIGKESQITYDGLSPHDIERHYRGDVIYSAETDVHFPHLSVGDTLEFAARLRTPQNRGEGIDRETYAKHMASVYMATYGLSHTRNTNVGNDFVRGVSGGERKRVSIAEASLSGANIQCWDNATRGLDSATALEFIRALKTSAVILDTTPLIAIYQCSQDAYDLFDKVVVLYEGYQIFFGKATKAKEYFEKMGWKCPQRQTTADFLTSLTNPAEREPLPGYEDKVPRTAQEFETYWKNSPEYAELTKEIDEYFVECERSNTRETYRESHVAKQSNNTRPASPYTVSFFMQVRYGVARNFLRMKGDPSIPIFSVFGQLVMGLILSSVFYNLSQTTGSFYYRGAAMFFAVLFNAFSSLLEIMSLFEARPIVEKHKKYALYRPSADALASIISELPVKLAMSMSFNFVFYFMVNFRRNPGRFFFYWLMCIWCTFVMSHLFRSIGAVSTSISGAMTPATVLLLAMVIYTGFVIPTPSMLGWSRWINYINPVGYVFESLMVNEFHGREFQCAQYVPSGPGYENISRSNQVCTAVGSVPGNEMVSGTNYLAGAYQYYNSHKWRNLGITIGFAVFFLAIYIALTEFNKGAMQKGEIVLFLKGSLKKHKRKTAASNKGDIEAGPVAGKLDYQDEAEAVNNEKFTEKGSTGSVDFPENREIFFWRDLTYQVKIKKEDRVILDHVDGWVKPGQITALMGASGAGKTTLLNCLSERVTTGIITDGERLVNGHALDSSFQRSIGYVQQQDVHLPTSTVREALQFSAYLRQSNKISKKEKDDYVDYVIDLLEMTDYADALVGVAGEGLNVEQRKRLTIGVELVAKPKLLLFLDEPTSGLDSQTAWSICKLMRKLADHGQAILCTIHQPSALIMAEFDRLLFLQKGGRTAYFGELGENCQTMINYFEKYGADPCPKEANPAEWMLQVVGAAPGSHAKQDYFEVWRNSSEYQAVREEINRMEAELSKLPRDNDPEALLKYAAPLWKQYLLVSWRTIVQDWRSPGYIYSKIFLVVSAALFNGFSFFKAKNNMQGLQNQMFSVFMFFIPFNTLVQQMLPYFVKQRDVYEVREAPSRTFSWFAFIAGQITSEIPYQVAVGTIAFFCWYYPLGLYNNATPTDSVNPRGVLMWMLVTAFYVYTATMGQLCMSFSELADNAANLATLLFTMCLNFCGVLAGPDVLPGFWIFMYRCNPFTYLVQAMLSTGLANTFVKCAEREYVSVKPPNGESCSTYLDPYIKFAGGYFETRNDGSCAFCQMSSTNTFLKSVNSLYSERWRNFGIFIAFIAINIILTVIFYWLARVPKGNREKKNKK
T2 sequence (P78595 whole entry): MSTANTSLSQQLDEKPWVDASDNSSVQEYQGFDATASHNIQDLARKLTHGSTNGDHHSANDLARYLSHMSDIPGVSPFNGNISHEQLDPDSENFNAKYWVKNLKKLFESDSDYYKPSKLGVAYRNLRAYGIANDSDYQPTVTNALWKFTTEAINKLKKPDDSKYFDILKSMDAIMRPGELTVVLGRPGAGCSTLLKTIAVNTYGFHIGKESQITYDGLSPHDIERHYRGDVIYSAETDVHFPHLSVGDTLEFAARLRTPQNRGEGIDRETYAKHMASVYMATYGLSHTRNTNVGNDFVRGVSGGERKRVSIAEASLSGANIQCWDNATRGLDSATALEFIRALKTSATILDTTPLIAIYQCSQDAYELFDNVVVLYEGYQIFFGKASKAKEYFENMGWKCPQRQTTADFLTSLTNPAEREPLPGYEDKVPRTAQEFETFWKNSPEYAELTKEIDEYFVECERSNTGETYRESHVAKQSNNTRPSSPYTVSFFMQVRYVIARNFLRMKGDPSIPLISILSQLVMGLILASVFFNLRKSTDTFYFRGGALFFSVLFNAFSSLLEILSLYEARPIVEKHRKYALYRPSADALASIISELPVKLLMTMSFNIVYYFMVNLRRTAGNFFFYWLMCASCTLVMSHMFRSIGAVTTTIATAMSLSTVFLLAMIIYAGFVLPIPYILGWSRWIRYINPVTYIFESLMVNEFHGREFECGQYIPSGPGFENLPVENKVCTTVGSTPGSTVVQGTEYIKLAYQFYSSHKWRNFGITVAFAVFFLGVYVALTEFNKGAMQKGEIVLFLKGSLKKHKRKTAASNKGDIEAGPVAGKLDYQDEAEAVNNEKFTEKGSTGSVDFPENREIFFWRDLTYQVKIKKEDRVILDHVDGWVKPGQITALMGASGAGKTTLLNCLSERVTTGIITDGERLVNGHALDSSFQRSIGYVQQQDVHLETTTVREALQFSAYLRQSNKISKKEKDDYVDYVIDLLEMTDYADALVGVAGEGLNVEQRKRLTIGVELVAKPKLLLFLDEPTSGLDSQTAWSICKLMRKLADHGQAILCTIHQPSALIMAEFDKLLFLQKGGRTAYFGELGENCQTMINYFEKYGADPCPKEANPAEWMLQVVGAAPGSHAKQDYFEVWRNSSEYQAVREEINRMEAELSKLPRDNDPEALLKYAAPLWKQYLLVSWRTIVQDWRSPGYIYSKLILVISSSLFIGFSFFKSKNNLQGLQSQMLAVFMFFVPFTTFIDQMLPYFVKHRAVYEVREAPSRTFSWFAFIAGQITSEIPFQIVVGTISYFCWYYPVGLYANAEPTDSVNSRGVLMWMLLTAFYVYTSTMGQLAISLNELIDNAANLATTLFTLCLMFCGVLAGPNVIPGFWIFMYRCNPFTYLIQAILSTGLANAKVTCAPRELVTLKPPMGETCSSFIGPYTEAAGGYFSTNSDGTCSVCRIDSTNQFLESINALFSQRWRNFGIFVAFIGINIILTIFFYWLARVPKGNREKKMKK
Melanin-concentrating hormone receptor 1, sequence (Q99705 whole entry): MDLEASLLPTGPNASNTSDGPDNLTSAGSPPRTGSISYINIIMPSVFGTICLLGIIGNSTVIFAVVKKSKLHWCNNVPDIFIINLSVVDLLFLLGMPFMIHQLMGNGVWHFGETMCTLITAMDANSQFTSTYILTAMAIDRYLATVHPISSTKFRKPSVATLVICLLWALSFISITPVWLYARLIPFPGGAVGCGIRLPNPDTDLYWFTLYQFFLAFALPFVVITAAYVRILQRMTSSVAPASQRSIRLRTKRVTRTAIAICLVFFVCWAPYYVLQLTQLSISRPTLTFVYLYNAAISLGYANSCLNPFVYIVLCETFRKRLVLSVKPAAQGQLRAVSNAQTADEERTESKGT
Glycogen synthase kinase-3 beta, sequence (P49841 whole entry): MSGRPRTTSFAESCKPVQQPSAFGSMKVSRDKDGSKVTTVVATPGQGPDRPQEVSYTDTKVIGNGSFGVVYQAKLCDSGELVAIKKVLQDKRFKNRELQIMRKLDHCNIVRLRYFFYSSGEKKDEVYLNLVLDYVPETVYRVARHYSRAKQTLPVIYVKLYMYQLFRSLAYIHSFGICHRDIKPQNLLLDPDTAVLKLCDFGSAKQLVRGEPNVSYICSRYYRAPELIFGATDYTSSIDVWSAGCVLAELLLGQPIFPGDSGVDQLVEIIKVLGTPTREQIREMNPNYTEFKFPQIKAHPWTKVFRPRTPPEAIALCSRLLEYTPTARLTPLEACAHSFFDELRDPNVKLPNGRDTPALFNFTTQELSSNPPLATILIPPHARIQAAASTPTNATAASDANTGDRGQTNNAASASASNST
Cyclin-dependent kinase 5/CDK5 activator 1, sequence (Q00535 whole entry): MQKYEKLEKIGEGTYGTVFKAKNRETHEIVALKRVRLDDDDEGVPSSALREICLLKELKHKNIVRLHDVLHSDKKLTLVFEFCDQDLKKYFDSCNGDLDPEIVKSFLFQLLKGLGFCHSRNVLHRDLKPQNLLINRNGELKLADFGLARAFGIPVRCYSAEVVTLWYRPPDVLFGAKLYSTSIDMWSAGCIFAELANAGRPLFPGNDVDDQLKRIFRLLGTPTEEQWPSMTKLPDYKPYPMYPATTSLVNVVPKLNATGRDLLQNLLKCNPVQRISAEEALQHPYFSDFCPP
Cyclin-dependent kinase 5/CDK5 activator 1, sequence (Q15078 whole entry, further chain): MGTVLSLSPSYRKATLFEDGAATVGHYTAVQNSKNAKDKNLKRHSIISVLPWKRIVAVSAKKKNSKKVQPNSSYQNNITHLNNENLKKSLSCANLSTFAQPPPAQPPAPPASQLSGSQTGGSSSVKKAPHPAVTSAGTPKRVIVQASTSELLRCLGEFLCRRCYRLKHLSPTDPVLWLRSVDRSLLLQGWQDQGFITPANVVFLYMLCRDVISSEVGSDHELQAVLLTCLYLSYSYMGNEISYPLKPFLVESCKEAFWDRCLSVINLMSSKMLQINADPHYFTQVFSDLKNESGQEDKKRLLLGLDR

On to `NC1=NC[C@@H](Cc2ccc(O)cc2)N1CCCCC1CCCCC1`, for which, in [1], the IC50 was > 20 µM (inactive). The EC50 in assay [2] was 27.3 µM (active); in [3], 16.3 µM (active).

Turning to `Cc1noc(C)c1C(=O)N1CCC2(CC1)Oc1ccc(F)cc1C(=O)C21CC(c2ccc(Cl)cc2)=NO1` (stereo not drawn), the EC50 in assay [4] was 15.6 µM (active); in assay [5], 11.5 µM (active); in [6], 26.8 µM (active); in assay [7], 16.9 µM (active).

Consider `COc1cccc(/C=C2/Sc3ccc(C(=O)NCCCN4CCCC4)cc3NC2=O)c1`, for which the AC50 – broadly, the midpoint of the concentration-response curve, whichever way the signal moves – in [8] was 4.46 µM (active); in assay [9], 38.9 µM (active); in assay [10], 7.91 µM (active); in assay [11] it was 4.47 µM (active).

On to `O=c1c(-c2ccc(F)cc2)c(Br)cnn1Cc1cccc2ccccc12`, for which the IC50 in assay [12] and in assay [13] was 2.24 µM (active) throughout.

In the case of `Oc1nc(SCc2ccccc2Cl)nc2c1CCCC2`, the CC50 in assay [14], in [15] and in assay [16] was > 100 µM (active) in each case.

Consider `CCc1nc2sc3c(c2c2nnc(SC)n12)CCCC3`, for which the IC50 in assay [17] and in assay [18] was > 99 µM (inactive) each time.
